What was measured:
[1] = molecular target: SelH (Homo sapiens, UniProt Q8IZQ5, U44C); experiment: Surface plasmon resonance (SPR) detection of affinity between compounds and SelH; type: binding
Text: A Cys-deficient Escherichia coli expression system was adopted, which is an effective method to prepare selenoprotein found in recent years. Itsbasic principle is as follows: the characteristic that Cys transfer RNA (tRNACys) can bind to Sec was utilized, and a culture medium which is lack of cysteine (Cys) and rich in Selenium cysteine (Sec) was used for culturing a strain, so that Sec was successfully incorporated into newly expressed protein. According to existing literature reports, a human SelH gene sequence was obtained. Selenocysteine of the SelH is in the middle of the sequence and was terminated here during prokaryotic expression, so that the selenocysteine was mutated from a triple codon TGA of the selenocysteine into TGC, which was synthesized by the Sangon Bioengineering (Shanghai) Co., Ltd. In addition, the adopted SPP system was a single protein production system, and a principle of the SPP system was to induce MazF enzyme (mRNA interfering enzyme for cutting RNA on an ACA nucleotide sequence) to cause growth arrest of thalli. The enzyme can specifically recognize and cut the ACA sequence and prevent synthesis of other background proteins in bacteria. Therefore, when mRNA of the desired target protein was encoded, if the mRNA can be designed into a form lacking an ACA base triplet according to an amino acid encoding rule and was induced at 15° C. by using a pCold vector in cells expressing MazF, the mRNA was not enzymatically hydrolyzed, only a protein derived from the mRNA was generated, and there was little synthesis of other cell proteins.
A pColdI-selH plasmid was transformed into BL21 (DE3) Cys-deficient Escherichia coli, so as to obtain a defective expression bacterium pColdI-selH. Sec was added during culture, making it become selenium-containing protein. The target protein was purified by using Ni^2+ column chelating chromatography, and impure protein was eluted by using an imidazole eluent of different concentrations to finally obtain the target protein. Soluble SelH protein was finally obtained, and SDS-PAGE (sodium dodecyl sulfate polyacrylamide gel electrophoresis) analysis was carried out.
A surface plasmon resonance (SPR) method was adopted to detect the interaction condition of a small molecule and a protein, so that the screening of drugs targeting SelH was carried out.
Purified SelH was diluted into a 50 μg/mL protein solution by using 10 mM sodium acetate with a pH value of 5.5, the purified SelH was fixed onto a CM5 chip by an amino coupling method by using Biacore 8K (GE Healthcard, Sweden), and an RU value was recorded.
An isopentenyl or isovaleryl substituted coumarin compound, or a triterpenoid compound with an isopentenyl-like structure (the compound specifically includes aurapten, protopanaxadiol, iso-imperatorin, decursin, osthol, notoginsenoside R1 and shionon) was dissolved in 100% DMSO to be prepared into solutions containing 5% DMSO of different concentrations (0, 31.25, 62.5, 125, 250 and 500 μM) by using a 1.05×PBS-P^+ buffer solution (GE Healthcare, obtained by diluting 10×PBS-P^+).
A single-cycle kinetics method was adopted, the 1.05×PBS-P^+ buffer solution containing 5% DMSO was used as a Running Buffer, different compounds of different concentrations flowed through the SelH fixed onto the chip, wherein the binding time was 120 s, and the change condition of the RU value was recorded. An equilibrium dissociation constant (KD) was calculated by using software in Biacore 8K so as to evaluate the binding affinity between the protein and the compounds. The SPR detection result of the affinity between compounds and SelH in Embodiment 2 of the present disclosure is as shown in FIG. 1A-G, and the result statistics is as shown in Table 1.
(1) Screening of small molecule drugs by taking SelH as a target A surface plasmon resonance (SPR) method was adopted to detect the interaction condition of a small molecule and a protein, so that the screening of drugs targeting SelH was carried out. […]

[2] = tested on: LN229 and U251 cells; experiment: Annexin V apoptosis flow cytometry, glioblastoma cells; type: cell-based
Experimental: Cell apoptosis and cell cycle: Cells (2×10^5) were plated in 6-well plates and treated with different concentrations of ISP I. Then the cells were harvested and washed three times with PBS. Cells were resuspended in 100 μl binding buffer and were incubated with 5 μl APC-conjugated Annexin V working solution, a product of BD bioscience (Franklin Lakes, NJ USA), and 1 μl propidium iodide (PI), a product of Invitrogen, for 15 min at room temperature with protection from light. Data acquisition and quantification were processed with BD LSRFortessa flow cytometer, using FlowJo software (Ashland, OR USA).

[3] = molecular target: SELH (Sec44→Cys44) (Homo sapiens, UniProt Q8IZQ5, U44C); experiment: SPR assay of ISP I with SELH synthesized in bacteria; type: binding
Text: Next, the inventors used a thermo-stability assay to confirm SELH was targeted by ISP I in LN229 and 786-O cell lines. The principle of the assay is based on altered protein thermal stabilization/destabilization due to ligand binding in living cells. […] (FIG. 11B and FIG. 12A). To verify further the specificity of ISP I's targeting of SELH, the inventors designed a surface plasmon resonance assay to assess the interaction of ISP I with SELH synthesized in bacteria.
The affinities constant (KD) and kinetics (ka and kd) of ISP I binding to SELH (Sec44→Cys44) were assayed using Biacore 8K (GE Healthcare, Sweden), all at 25° C. […] Coupling conditions were determined by protein isoelectric points. […]
To determine the binding affinity between ISP I and SELH (Sec44→Cys44), a series of ISP I dilutions was analyzed by single-cycle kinetics. […] The ISP I at various gradient concentrations and one zero concentration (running buffer) flowed over the immobilized SELH, with 120 s for binding, followed by disassociation for 120 s, and the obtained response units (RUs) were recorded. The RU values were collected, and the binding affinity data were calculated by kinetic models (1:1 interaction) within Biacore 8K Evaluation Software. The equilibrium dissociation constant (KD) was calculated to evaluate the ability of ISP I to interact with SELH.

[4] = molecular target: SELH protein expression (Homo sapiens (Human), UniProt Q8IZQ5); experiment: Western blot of SELH protein in ISP I-treated cells; type: cell-based
Sequence of SELH protein expression (Q8IZQ5 whole entry): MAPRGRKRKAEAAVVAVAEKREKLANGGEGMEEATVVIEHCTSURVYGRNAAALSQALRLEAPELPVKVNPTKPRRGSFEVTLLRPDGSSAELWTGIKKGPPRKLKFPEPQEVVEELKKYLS
Text: A cycloheximide (CHX) chase assay was completed to assess ISP I's effect on SELH protein degradation.

Sequence of SelH (Q8IZQ5 with tags, fused parts or gaps U44C): as the sequence (Q8IZQ5 whole entry) above, with U44C counted along it
Sequence of SELH (Sec44→Cys44) (Q8IZQ5 with tags, fused parts or gaps U44C): as the sequence (Q8IZQ5 whole entry) above, with U44C counted along it

In the case of `CO[C@@H]1[C@@H](O[C@@H]2O[C@H](C)[C@@H](O[C@H]3C[C@@](C)(O)[C@@H](OC(=O)CC(C)C)[C@H](C)O3)[C@H](N(C)C)[C@H]2O)[C@@H](CC=O)C[C@@H](C)[C@@H](O[C@H]2CC[C@H](N(C)C)[C@@H](C)O2)/C=C/C=C/C[C@@H](C)OC(=O)C[C@H]1O` [Isovalerylspiramycin I, 4″-isovalerylspiramycin I], the Kd ([1]; SPR Biacore 8K, single-cycle kinetics, Table 3, read-out: KD binding of macrolides and cyclic peptides to SelH) is reported as 2480 nM, the “binding activity to the SelH (in words)” value ([1]; ranking within the table's compounds) is reported as “strongest” and the “apoptosis (Annexin V stain)” value [2] is reported as “dose-dependent apoptosis”. The “binding to SELH versus other proteins” value [3] was “tightly binds to SELH but does not bind with the other proteins”, the SELH protein expression ([4]; LN229 cells, different concentrations of ISP I) was “reduced SELH protein expression in LN229 cells in a dose-dependent manner” and the “SELH levels in glioblastoma cell lines” value ([4]; T98G, U118, LN229, U251, 10 μg/mL of ISP I for 24 hours) was “decreased SELH levels”.
